For twelve compounds, inhibition results are on record in patent US10106556B2, “Heterocyclic compound” (TAKEDA PHARMACEUTICAL COMPANY LIMITED, priority 2015, dated 2018).

The target of the assay is T1, His-hMAGL (recombinant polyhistidine tagged human MAGL protein) (Homo sapiens, UniProt Q99685).
T1 construct: made in house; host or cells: E. coli BL21(DE3)
T1 sequence (Q99685 1-303): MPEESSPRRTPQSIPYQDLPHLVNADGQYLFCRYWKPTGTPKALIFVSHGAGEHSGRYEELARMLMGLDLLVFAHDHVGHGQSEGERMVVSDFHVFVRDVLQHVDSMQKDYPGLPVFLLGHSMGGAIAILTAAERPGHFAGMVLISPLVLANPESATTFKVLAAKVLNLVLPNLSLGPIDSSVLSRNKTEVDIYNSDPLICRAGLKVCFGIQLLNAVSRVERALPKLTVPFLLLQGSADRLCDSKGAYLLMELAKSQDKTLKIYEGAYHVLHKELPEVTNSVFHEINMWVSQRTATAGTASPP
Briefly: Measurement of MAGL inhibitory activity (arachidonic acid production from 2-arachidonylglycerol, RapidFire-mass spectrometry). Format: biochemical. The settings on record: MAGL inhibitory rate at 10 μM test compound; 60 min preincubation with His-hMAGL, 2-arachidonylglycerol substrate, 10 min reaction at room temperature. The procedure, abridged: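 Inhibition (%) was derived from arachidonic acid levels relative to enzyme-free and compound-free groups. Product was measured by online C4 solid-phase extraction and triple-quadrupole MS in negative SRM mode, corrected by arachidonic acid-d8 (3 μM in the acetonitrile added). Substrate was 2-arachidonylglycerol; enzyme was His-tagged recombinant human MAGL.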
In the case of `O=C1COc2cc(F)c(C(=O)N3CC(COc4ccc(Cl)cc4-c4ccc(Cl)nc4)C3)cc2N1` [Example 205, 6-((3-((4-chloro-2-(6-chloropyridin-3-yl)phenoxy)methyl)azetidin-1-yl)carbonyl)-7-fluoro-2H-1,4-benzoxazin-3(4H)-one], the inhibition (in general, the relative decrease from the control value, in per cent) at 10 µM is 103%.

For `O=C1COc2cc(F)c(C(=O)N3CC(COc4ccc(Cl)cc4-c4ccncc4)C3)cc2N1` [Example 206, 6-((3-((4-chloro-2-(pyridin-4-yl)phenoxy)methyl)azetidin-1-yl)carbonyl)-7-fluoro-2H-1,4-benzoxazin-3(4H)-one], the inhibition at 10 µM stood at 104%. Next, `O=C1COc2cc(F)c(C(=O)N3CC(COc4ccc(Cl)cc4-c4ccnc(F)c4)C3)cc2N1` [Example 207, 6-((3-((4-chloro-2-(2-fluoropyridin-4-yl)phenoxy)methyl)azetidin-1-yl)carbonyl)-7-fluoro-2H-1,4-benzoxazin-3(4H)-one]: 100%. On to `O=C1COc2cc(F)c(C(=O)N3CC(COc4ccc(Cl)cc4-c4ccnc(Cl)c4)C3)cc2N1` [Example 208, 6-((3-((4-chloro-2-(2-chloropyridin-4-yl)phenoxy)methyl)azetidin-1-yl)carbonyl)-7-fluoro-2H-1,4-benzoxazin-3(4H)-one], for which the inhibition at 10 µM worked out at 98%. With `O=C1COc2cc(F)c(C(=O)N3CC(COc4ccc(Cl)cc4-c4ccncc4F)C3)cc2N1` [Example 209, 6-((3-((4-chloro-2-(3-fluoropyridin-4-yl)phenoxy)methyl)azetidin-1-yl)carbonyl)-7-fluoro-2H-1,4-benzoxazin-3(4H)-one], the inhibition at 10 µM was 101%. Consider `O=C1COc2cc(F)c(C(=O)N3CC(COc4ccc(Cl)cc4-c4ccncc4Cl)C3)cc2N1` [Example 210, 6-((3-((4-chloro-2-(3-chloropyridin-4-yl)phenoxy)methyl)azetidin-1-yl)carbonyl)-7-fluoro-2H-1,4-benzoxazin-3(4H)-one], for which the inhibition at 10 µM was determined as 101%. On to `O=C1COc2cc(F)c(C(=O)N3CC(COc4ccc(Cl)cc4C4=CCOCC4)C3)cc2N1` [Example 211, 6-((3-((4-chloro-2-(3,6-dihydro-2H-pyran-4-yl)phenoxy)methyl)azetidin-1-yl)carbonyl)-7-fluoro-2H-1,4-benzoxazin-3(4H)-one], for which the inhibition at 10 µM amounted to 101%. For `CN1CC=C(c2cc(Cl)ccc2OCC2CN(C(=O)c3cc4c(cc3F)OCC(=O)N4)C2)CC1` [Example 212, 6-((3-((4-chloro-2-(1-methyl-1,2,3,6-tetrahydropyridin-4-yl)phenoxy)methyl)azetidin-1-yl)carbonyl)-7-fluoro-2H-1,4-benzoxazin-3(4H)-one], the inhibition at 10 µM was determined as 94%.

With `Cn1cc(-c2cc(Cl)ccc2OCC2CN(C(=O)c3cc4c(cc3F)OCC(=O)N4)C2)cn1` [Example 213, 6-((3-((4-chloro-2-(1-methyl-1H-pyrazol-4-yl)phenoxy)methyl)azetidin-1-yl)carbonyl)-7-fluoro-2H-1,4-benzoxazin-3(4H)-one], the inhibition at 10 µM came to 100%. Consider `O=C1COc2cc(F)c(C(=O)N3CC(COc4ccc(Cl)cc4-c4cnn(C(F)F)c4)C3)cc2N1` [Example 214, 6-((3-((4-chloro-2-(1-(difluoromethyl)-1H-pyrazol-4-yl)phenoxy)methyl)azetidin-1-yl)carbonyl)-7-fluoro-2H-1,4-benzoxazin-3(4H)-one], for which the inhibition at 10 µM came to 104%.

As for `O=C1COc2cc(F)c(C(=O)N3CC(COc4ccc(Cl)cc4-c4cnn(C5CC5)c4)C3)cc2N1` [Example 215, 6-((3-((4-chloro-2-(1-cyclopropyl-1H-pyrazol-4-yl)phenoxy)methyl)azetidin-1-yl)carbonyl)-7-fluoro-2H-1,4-benzoxazin-3(4H)-one], the inhibition at 10 µM is 99%. As to `Cn1ccc(-c2cc(Cl)ccc2OCC2CN(C(=O)c3cc4c(cc3F)OCC(=O)N4)C2)n1` [Example 216, 6-((3-((4-chloro-2-(1-methyl-1H-pyrazol-3-yl)phenoxy)methyl)azetidin-1-yl)carbonyl)-7-fluoro-2H-1,4-benzoxazin-3(4H)-one], the inhibition at 10 µM turned out to be 97%.
